{
  "source": "paper PMC5760527",
  "about": "“Connexin 43 Hemichannel as a Novel Mediator of Sterile and Infectious Inflammatory Diseases” (Scientific Reports, 2018)",
  "key": {"[1]": {"system": "Panx1 hemichannel permeability, macrophages", "assay": "Lucifer Yellow dye uptake in presence of calcium (Panx1 hemichannel permeability)", "assay_type": "cell-based"}, "[2]": {"system": "Balb/c mice, polymicrobial sepsis (CLP)", "assay": "CLP-induced sepsis survival", "assay_type": "in vivo", "conditions": "P5 8.0 mg/kg", "excerpt": "(§1) This study was approved and performed in accordance with the guidelines of the Institutional Animal Care and Use Committee of the Feinstein Institute for Medical Research, Manhasset, New York, USA (Animal Protocol #2008-033, Approval date: September 10, 2014). To evaluate the effect of various Cx43 mimetic peptides on sepsis lethality, a clinically relevant animal model of sepsis induced by cecal ligation and puncture (CLP) was employed. Briefly, the cecum of Balb/c mice was ligated at about 5 mm from the cecal tip, and then punctured once with a 22-gauge needle. GAP26, TAT-GAP19 or P5 peptides were administered intraperitoneally into mice at indicated doses and time points, and animal survival rates were monitored for up to 2 wks. The Kaplan-Meier method was used to compare the differences in mortality rates between groups."}, "[3]": {"system": "Cx43 gap junctions, NIH 3T3 fibroblasts", "assay": "Cx43 gap junction formation, immunostaining", "assay_type": "cell-based", "conditions": "P5 20 µM, overnight", "procedure": "Primary peritoneal macrophages were isolated from Balb/c mice, stimulated with LPS or SAA for 6 h, and immunostained with an affinity-purified rabbit anti-Cx43 IgGs (1:1,000 dilution at 4 °C) as previously described. Non-immune NIH 3T3 cells were grown on glass coverslips to confluency to allow formation of gap junctional channels. The growth medium was changed to DMEM before an overnight incubation with P5 (20 µM). Cells were then fixed with 2% paraformaldehyde, incubated for 16 hr with a well-characterized affinity-purified rabbit anti-Cx43 IgGs as previously described. After extensive washing, cells were incubated with donkey anti-rabbit Alexa 488 (Invitrogen) for 1 hr at room temperature. The coverslips were subsequently mounted on glass slides using anti-fade medium and examined using an epi-fluorescence microscope."}, "[4]": {"system": "HMGB1 release, RAW 264.7 cells", "assay": "HMGB1 release, Western blotting", "assay_type": "cell-based, murine", "conditions": "LPS 0.5 µg/ml, 16 h, P < 0.05 versus +LPS"}, "[5]": {"system": "LPS-induced Cx43 upregulation, macrophages", "assay": "LPS-induced Cx43 upregulation in presence of P5", "assay_type": "cell-based", "conditions": "macrophage cultures; data not shown", "procedure": "The cellular levels of Cx43 and phosphor-PKR were determined by Western blotting analysis using an affinity-purified rabbit anti-Cx43 or anti-phospho-PKR (Thr^451) IgGs as previously described[9],[25],[53]. The levels of HMGB1 in the culture medium were determined by Western blotting analysis as described previously. The level of β-actin was used as a reference of total cellular proteins. Briefly, an equal volume of culture medium (conditioned by identical macrophage cell numbers) was harvested, and protein content was concentrated by ultrafiltration (with a molecular weight cutoff of 10.0 kDa), and then normalized to the same volume with a sample buffer. Proteins in equal sample volume were resolved on sodium dodecyl sulfate (SDS)-polyacrylamide gels, and transferred to polyvinylidene difluoride (PVDF) membranes. After blocking with 5% nonfat milk, the membrane was incubated with respective antibodies (anti-Cx43, 1:1000; anti-phospho-PKR, 1:1000; anti-HMGB1, 1:1,000; anti-β-actin. 1:5,000) overnight. Subsequently, the membrane was incubated with the appropriate secondary antibody, and the immunoreactive bands were visualized by chemiluminescence techniques."}, "[6]": {"system": "hepatic I/R injury, C57BL/6 mice", "assay": "Hepatic ischemia/reperfusion injury", "assay_type": "in vivo, Male C57BL/6 mice", "conditions": "P5 10.0 mg/kg i.v. at onset of reperfusion; 60 min ischemia; 24 h after onset of ischemia; P < 0.05 versus saline (I/R)", "procedure": "Male C57BL/6 mice (20–25 g) were subjected to hepatic ischemia/reperfusion by temporally clamping the hepatic artery and portal vein for 60 min, which typically produced ischemia in 70% of the liver. At the beginning of the reperfusion, 0.2 ml saline, P5 (10.0 mg/kg BW) was injected via the internal jugular vein. At 24 h after the onset of ischemia, animals were euthanized to harvest blood to measure serum levels of hepatic injury markers such as alanine aminotransferase (ALT) and aspartate aminotransferase (AST) using commercial kits."}, "[7]": {"system": "TUNEL-positive cells, lungs of septic mice (CLP)", "assay": "TUNEL staining of septic lungs", "assay_type": "in vivo, Balb/c mice", "conditions": "lungs at 24 h post CLP, at protective doses; 5–8 fields; P < 0.05 versus CLP", "excerpt": "as §1\nUpper and lower lobe lung tissues were collected at 24 h post CLP, fixed in 4% paraformaldehyde, embedded in paraffin, and cut into 5 µm thick sections. […] Five to eight fields of view were randomly selected for each tissue section, and the number of TUNEL-positive green cells was expressed as an average of percentage of total DAPI-positive blue cells."}, "Cx43 EL2 peptide": {"system": "Cx43 EL2 peptide", "assay": "Surface Plasmon Resonance, Cx43 EL2 peptide", "assay_type": "binding", "conditions": "synthetic full-length EL2 peptide, data not shown"}},
  "data": [
    {"substance": "ENVCYD [P5, cysteine-containing Cx43 EL1 mimetic hexamer peptide, P5 (ENVCYD)]", "values": [
      {"measurement": "LY uptake in calcium-containing medium", "setting": "[1]", "result": "did not alter macrophage LY uptake in calcium-containing medium"},
      {"measurement": "animal survival rates (in words)", "setting": "[2]; +2 h and +24 h after onset of sepsis, P < 0.05 versus CLP + Saline", "result": "significant increase in animal survival rates"},
      {"measurement": "animal survival", "setting": "[2]; i.p., +2, +24 h post CLP, up to two weeks, saline 30%, P < 0.05, Kaplan-Meier", "result": 85, "unit": "%"},
      {"measurement": "GJ formation (Cx43 punctate immunostaining)", "setting": "[3]", "result": "did not alter the punctate immunostaining profile of Cx43"},
      {"measurement": "inhibition of LPS-induced HMGB1 release", "setting": "[4]", "result": "significantly inhibited by P5 in a dose-dependent fashion"},
      {"measurement": "LPS-induced Cx43 upregulation", "setting": "[5]", "result": "did not affect the LPS-induced Cx43 upregulation"},
      {"measurement": "serum alanine aminotransferase (ALT)", "setting": "[6]", "result": "significant reduction of serum levels"},
      {"measurement": "serum aspartate aminotransferase (AST)", "setting": "[6]", "result": "significant reduction of serum levels"},
      {"measurement": "systemic release of LDH", "setting": "[6]", "result": "significantly attenuated"},
      {"measurement": "TUNEL-positive cells in septic lungs", "setting": "[7]", "result": "significantly reduced the number of TUNEL-positive cells in septic lungs"},
      {"measurement": "binding to Cx43 EL2 peptide", "setting": "Cx43 EL2 peptide", "result": "did not find evidence of P5 interacting"}
    ]}
  ]
}
